Results as given in US20030232851A1, “Viral treatment” (The Procter & Gamble Company, priority 1999, published 2003).
Values joined by “and” are separate entries in the source; they are usually repeats but may differ in a detail not shown here. Equal values may be shown once.

How the values were obtained:
Assay type in all cases: cell-based
[1] = tested on: HIV-1 cell line, U937IIIB; test: Long term in vitro study, U937IIIB, reverse transcriptase; parameters: reverse transcriptase data: unit not given here
Protocol: A microtiter-based reveres transcriptase (RT) reaction is utilized (Buckheit et al (1991) AIDS Research and Human Retroviruses 7:295-302). Tritiated thymidine triphosphate (NEN)(TTP) is resuspended in distilled water at 5 Ci/ml. Poly rA and oligo dT are prepared as a stock solution which is kept at −20° C. The RT reaction buffer is prepared fresh on a daily basis and consists of 125 μl 1M EGTA, 125 μl water, 125 μl Triton X-100, 50 μl Tris (pH 7.4), 50 μl 1 MDDT, and 40 μl 1M MgCl2. These three solutions are mixed together in a ratio of 1 part TTP, 2.5 parts poly rA:oligo dT, 2.5 parts reaction buffer and 4 parts distilled water. Ten microliters of this reaction mixture is placed in a round bottom microtiter place and 15 μl of virus containing supernatant is added and mixed. The plate is incubated at 37° C. for 60 minutes. Following reaction, the reaction volume is spotted onto filter mats, washed 6 times for 5 minutes each in a 5% sodium phosphate buffer, 2 times for 1 minute each in distilled water, 2 times for 1 minute each in 70% ethanol, and then dried. The dried filter mat is placed in a plastic sample bag, Betaplate scintillation fluid is added and the bag is heat sealed. Incorporated radioactivity is quantified utilizing a Wallac Microbeta scintillation counter.
Acute infection of most established human cell lines with HIV-1 results in the eventual establishment of a constitutive virus-producing chronically infected cell line. The cells can be passaged for long periods of time in culture without loss of virus production. These cells may be utilized to evaluate the effects of anti-HIV compounds on syncytium formation or to evaluate the effects of anti-HIV compounds on levels of virus production from these cells. […] Each of the cells contains an integrated HIV genome or provirus. Chronically infected CEM, H9 and U937 cell lines have been prepared and cultured by Southern Research Institute, Frederick Md. and are available from them.
CEM-SS cells chronically infected with HIV isolate, for example SKI (CEM-SKI) are cultured in RPMI1640 tissue culture medium supplemented with 10% fetal bovine serum and antibiotics. […] CEM-SKI or other infected cells with no added drug are used as the control cells. Cells are allowed to grow to a density of approximately 1×10^6 cells/ml and are then passaged at a 1:10 dilution. […] The drug concentration in the flask is then increased two-fold and the cells maintained as above.
The cell populations contain integrated copies of the HIV genome and constitutively produce HIV at relatively high levels or are latently infected and only produce virus after stimulation with phorbol esters, tumor necrosis factor or IL6 (U1 and ACH2). Reductions in virus products were observed when quantifying supernatant reverse transcriptase activity,
A long term in vitro study of 2-(2-thienyl)-imidazolo [4,5-b]pyridine against an HIV-1 cell line, U9371IIIB was conducted at three different levels. The results with U937IIIB cells were reported at weekly intervals.

[2] = tested on: HHV8 cell line, TPA-induced BCBL-1 cells; test: Kaposi's Sarcoma (HHV8) in vitro test, DNA copy number
Protocol: (§1) The DNA copy number and the toxicity value were measured and compared with Cidofovir.

[3] = Kaposi's Sarcoma test: toxicity values; parameters: Toxicity Values, samples 1-3 / Toxicity Values, average: scale not given here; conditions: human, TPA-induced BCBL-1 cells (HHV8 cell line); read-out: TC50 (the source's name)
Protocol: as §1

TPA-induced BCBL-1 cells = test: Kaposi's Sarcoma test: toxicity values; parameters: Toxicity Values, samples 1-3 / Toxicity Values, average: scale not given here
Protocol: as §1

## c1csc(-c2nc3cccnc3[nH]2)c1 [2-(2-thienyl)-imidazolo [4,5-b]pyridine]
[1]; 7 μg/ml, day 4
  reverse transcriptase data: 2100
[1]; 7 μg/ml, day 11
  reverse transcriptase data: 2205
[1]; 7 μg/ml, day 18
  reverse transcriptase data: 2245
[1]; 7 μg/ml, day 25
  reverse transcriptase data: 2212
[1]; 7 μg/ml, day 32
  reverse transcriptase data: 2347
[1]; 7 μg/ml, day 39
  reverse transcriptase data: 2516
[1]; 7 μg/ml, day 46
  reverse transcriptase data: 1968
[1]; 7 μg/ml, day 53
  reverse transcriptase data: 1695
[1]; 7 μg/ml, day 60
  reverse transcriptase data: 2887
[1]; 7 μg/ml, day 67
  reverse transcriptase data: 4170
[1]; 7 μg/ml, day 71
  reverse transcriptase data: 7786
[1]; 7 μg/ml, day 74
  reverse transcriptase data: 6119
[1]; 7 μg/ml, day 88
  reverse transcriptase data: 6880
[1]; 7 μg/ml, day 95
  reverse transcriptase data: 5041
[1]; 7 μg/ml, day 102
  reverse transcriptase data: 5072
[1]; 7 μg/ml, day 109
  reverse transcriptase data: 7437
[1]; 15 μg/ml, day 4
  reverse transcriptase data: 1188
[1]; 15 μg/ml, day 11
  reverse transcriptase data: 713
[1]; 15 μg/ml, day 18
  reverse transcriptase data: 993
[1]; 15 μg/ml, day 25
  reverse transcriptase data: 1900
[1]; 15 μg/ml, day 32
  reverse transcriptase data: 2003
[1]; 15 μg/ml, day 39
  reverse transcriptase data: 1326
[1]; 15 μg/ml, day 46
  reverse transcriptase data: 987
[1]; 15 μg/ml, day 53
  reverse transcriptase data: 1221
[1]; 15 μg/ml, day 60
  reverse transcriptase data: 1205
[1]; 15 μg/ml, day 67
  reverse transcriptase data: 2314
[1]; 15 μg/ml, day 71
  reverse transcriptase data: 4265
[1]; 15 μg/ml, day 74
  reverse transcriptase data: 5689
[1]; 15 μg/ml, day 88
  reverse transcriptase data: 6832
[1]; 15 μg/ml, day 95
  reverse transcriptase data: 4988
[1]; 15 μg/ml, day 102
  reverse transcriptase data: 3912
[1]; 15 μg/ml, day 109
  reverse transcriptase data: 4294
[1]; 30 μg/ml, day 4
  reverse transcriptase data: 996
[1]; 30 μg/ml, day 11
  reverse transcriptase data: 180
[1]; 30 μg/ml, day 18
  reverse transcriptase data: 417
[1]; 30 μg/ml, day 25
  reverse transcriptase data: 588
[1]; 30 μg/ml, day 32
  reverse transcriptase data: 716
[1]; 30 μg/ml, day 39
  reverse transcriptase data: 625
[1]; 30 μg/ml, day 46
  reverse transcriptase data: 542
[1]; 30 μg/ml, day 53
  reverse transcriptase data: 208
[1]; 30 μg/ml, day 60
  reverse transcriptase data: 504
[1]; 30 μg/ml, day 67
  reverse transcriptase data: 782
[1]; 30 μg/ml, day 71
  reverse transcriptase data: 1414
[1]; 30 μg/ml, day 74
  reverse transcriptase data: 1059
[1]; 30 μg/ml, day 88
  reverse transcriptase data: 1811
[1]; 30 μg/ml, day 95
  reverse transcriptase data: 1988
[1]; 30 μg/ml, day 102
  reverse transcriptase data: 1695
[1]; 30 μg/ml, day 109
  reverse transcriptase data: 1542
[1]; run through 242 days
  reverse transcriptase data on continuation (in words): data remained consistent
[2]; 0.64 μM
  DNA Copy Number, % virus control: 97.2%
  DNA Copy Number, average: 14122.1 per 3 μl
  DNA Copy Number, samples 1-3: 16524.7 per 3 μl and 16524.9 per 3 μl and 12316.8 per 3 μl
[2]; 2 μM
  DNA Copy Number, % virus control: 94.0%
  DNA Copy Number, average: 13653.8 per 3 μl
  DNA Copy Number, samples 1-3: 13427.5 per 3 μl and 11819.4 per 3 μl and 15714.5 per 3 μl
[2]; 6.4 μM
  DNA Copy Number, % virus control: 95.5%
  DNA Copy Number, average: 13876.4 per 3 μl
  DNA Copy Number, samples 1-3: 11795.6 per 3 μl and 15297.5 per 3 μl and 14536.1 per 3 μl
[2]; 20 μM
  DNA Copy Number, % virus control: 77.9%
  DNA Copy Number, average: 11321.8 per 3 μl
[2]; 64 μM
  DNA Copy Number, % virus control: 2.9%
  DNA Copy Number, average: 427.3 per 3 μl
[2]; 200 μM
  DNA Copy Number, % virus control: 13.9%
  DNA Copy Number, average: 2020.8 per 3 μl
  DNA Copy Number, samples 1-3: 1680.4 per 3 μl and 2041.2 per 3 μl and 2340.8 per 3 μl
[2]; Human gammaherpesvirus 8, BCBL1
  IC50: 36.4 µM
[3]
  CC50: 32.6 µM
TPA-induced BCBL-1 cells; 0.64 μM
  Toxicity Values, % cell control: 110.5%
  Toxicity Values, average: 1.160
  Toxicity Values, samples 1-3: 1.034 and 1.201 and 1.245
TPA-induced BCBL-1 cells; 2 μM
  Toxicity Values, % cell control: 111.7%
  Toxicity Values, average: 1.172
  Toxicity Values, samples 1-3: 1.155 and 1.182 and 1.179
TPA-induced BCBL-1 cells; 6.4 μM
  Toxicity Values, % cell control: 111.5%
  Toxicity Values, average: 1.170
  Toxicity Values, samples 1-3: 1.198 and 1.119 and 1.193
TPA-induced BCBL-1 cells; 20 μM
  Toxicity Values, % cell control: 69.5%
  Toxicity Values, average: 0.729
  Toxicity Values, samples 1-3: 0.701 and 0.706 and 0.782
TPA-induced BCBL-1 cells; 64 μM
  Toxicity Values, % cell control: 1.5%
  Toxicity Values, average: 0.016
  Toxicity Values, samples 1-3: 0.020 and 0.016 and 0.013
TPA-induced BCBL-1 cells; 200 μM
  Toxicity Values, % cell control: 6.4%
  Toxicity Values, average: 0.067
  Toxicity Values, samples 1-3: 0.068 and 0.067
